Biological target: T1, TASKA (truncated ASKA) (Anoxybacillus ayderensis, UniProt I1VWH9)
T1 construct: signal peptide (1-23) and predicted C-terminal transmembrane region (479-505) removed; 6xHis tags at N- and C-termini (pET-28a); E. coli BL21(DE3); monomer in asymmetric unit
T1 sequence (I1VWH9 24-478): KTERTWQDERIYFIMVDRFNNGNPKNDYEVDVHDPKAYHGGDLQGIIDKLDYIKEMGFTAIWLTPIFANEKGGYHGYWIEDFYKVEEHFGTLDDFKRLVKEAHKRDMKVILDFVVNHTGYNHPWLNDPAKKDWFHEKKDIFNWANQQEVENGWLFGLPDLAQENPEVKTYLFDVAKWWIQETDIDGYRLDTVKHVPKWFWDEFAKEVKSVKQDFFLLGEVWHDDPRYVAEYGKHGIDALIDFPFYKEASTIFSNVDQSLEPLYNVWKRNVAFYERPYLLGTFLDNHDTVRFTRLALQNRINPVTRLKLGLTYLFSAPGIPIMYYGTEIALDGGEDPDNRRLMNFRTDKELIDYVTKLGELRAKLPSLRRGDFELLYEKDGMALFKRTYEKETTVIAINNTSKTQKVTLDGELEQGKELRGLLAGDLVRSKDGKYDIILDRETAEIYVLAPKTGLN
Experiment: UPLC-ELSD product analysis
Assay type: biochemical
Settings: hydrolysed to glucose and maltose; co-crystal (TASKA-T) shows only maltose

SMILES: OC[C@H]1O[C@H](O[C@H]2[C@H](O)[C@@H](O)[C@@H](O[C@H]3[C@H](O)[C@@H](O)C(O)O[C@@H]3CO)O[C@@H]2CO)[C@H](O)[C@@H](O)[C@@H]1O (stereo partly shown) [maltotriose]
- UPLC-ELSD product analysis: glucose and maltose were produced following the hydrolysis of maltotriose

Reference: publication PMC4791539, “Crystal structure of Anoxybacillus α-amylase provides insights into maltose binding of a new glycosyl hydrolase subclass” (Scientific Reports, 2016)
